A word on the Ki: it is a measure of affinity in units of concentration, obtained from inhibition or displacement. The low end stands for a stronger hold on the target, the high end for a looser hold on the target. Broadly, the logP is a log measure of how a compound divides between an organic and an aqueous phase. A higher logP goes with a more lipophilic compound.

The first data set deals with T1, Sigma non-opioid intracellular receptor 1 (Homo sapiens, UniProt Q99720). In words: Receptor binding affinity against Sigma receptor.
T1 sequence (Q99720 whole entry): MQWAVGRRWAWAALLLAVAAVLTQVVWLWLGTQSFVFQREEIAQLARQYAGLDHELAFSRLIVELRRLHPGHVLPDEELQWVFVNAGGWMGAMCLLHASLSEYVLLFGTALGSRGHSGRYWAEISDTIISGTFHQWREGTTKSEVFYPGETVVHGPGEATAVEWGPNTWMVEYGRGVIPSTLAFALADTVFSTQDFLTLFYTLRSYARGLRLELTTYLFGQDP
Conditions: not given
As to `N#Cc1ccc(OCC2CCN(CC3CC3)CC2)cc1`, affinity was put at a Ki of 10 nM.

As to `O=[N+]([O-])c1ccc(OCC2CCN(CC3CC3)CC2)cc1`, the Ki turned out to be 13 nM.

System in another data set: not listed separately
In words: (§1) Ki ratio measured as Ki of sigma-2 receptor to that of sigma-1 receptor.
Conditions: not given
`Brc1ccc(OCC2CCN(CC3CC3)CC2)cc1`: the Ratio is 22.7.

With `Brc1cccc(OCC2CCN(CC3CC3)CC2)c1`, the Ratio worked out at 11.3.

`N#Cc1ccccc1CN1CCC(COc2ccc(I)cc2)CC1`: the Ratio worked out at 13.5.

Regarding `FCCCN1CCC(COc2ccc(Br)cc2)CC1`, the Ratio came to 34.5.

Turning to `FCCCN1CCC(COc2c(F)c(F)c(F)c(F)c2F)CC1`, the Ratio was determined as 2.05.

For the molecule `Ic1ccc(OCC2CCN(CC3CC3)CC2)cc1`, the Ratio stood at 23.4.

Regarding `N#Cc1ccc(OCC2CCN(Cc3ccccc3I)CC2)cc1`, the Ratio came to 10.1.

Consider `FCCN1CCC(COc2ccc(I)cc2)CC1`, for which the Ratio turned out to be 121.

On to `Fc1cccc(CN2CCC(COc3c(F)c(F)c(F)c(F)c3F)CC2)c1`, for which the Ratio worked out at 7.48.

Consider `Fc1ccc(CN2CCC(COc3c(F)c(F)c(F)c(F)c3F)CC2)cc1`, for which the Ratio came to 1.17.

In the case of `N#Cc1ccc(OCC2CCN(Cc3ccccc3Br)CC2)cc1`, the Ratio turned out to be 15.4.

Turning to `N#Cc1ccc(OCC2CCN(CCF)CC2)cc1`, the Ratio amounted to 14.9.

On to `OCCN1CCC(COc2ccc(I)cc2)CC1`, for which the Ratio stood at 60.4.

Consider `N#Cc1cccc(CN2CCC(COc3ccc(I)cc3)CC2)c1`, for which the Ratio came out at 24.

A further data set addresses T1, Sigma non-opioid intracellular receptor 1. The data set is described as §1. The note with it: Cavia porcellus.
Regarding `O=[N+]([O-])c1ccc(OCC2CCN(Cc3ccc(F)cc3)CC2)cc1`, the Ratio was determined as 3.25.

The species entered for the next data set is Rattus norvegicus. Briefly: Blockade of uptake of the radiotracer in posterior cortex of rat.
Conditions: not given
Format: functional.
For `O=C(CCCN1CCC(O)(c2ccc(Cl)cc2)CC1)c1ccc(F)cc1` [HALOPERIDOL], the Blockade worked out at 91%.

The target of another data set is T1, Sigma non-opioid intracellular receptor 1. Briefly: Ki ratio measured as Ki of sigma-2 receptor to that of sigma-1 receptor. The note with it: Cavia porcellus.
Consider `N#Cc1ccc(OCC2CCN(Cc3ccc(F)cc3)CC2)cc1`, for which the Ratio was determined as 6.84.

The next data set addresses Sigma 2 receptor. In words: In vitro for binding affinity at sigma-2 receptor by measuring its ability to displace [3H]DTG from guinea pig membranes.
Conditions: not given
On the set-up: species or system Cavia porcellus.
The molecule `Fc1c(F)c(F)c(CN2CCC(COc3c(F)c(F)c(F)c(F)c3F)CC2)c(F)c1F` had an inhibition constant (Ki) above 1000 nM.

The molecule `N#Cc1ccc(OCC2CCN(Cc3ccc(F)cc3)CC2)cc1` returned a Ki of 5.2 nM.

`Brc1ccc(OCC2CCN(CC3CC3)CC2)cc1`: the Ki was found to be 13.6 nM.

With `Brc1cccc(OCC2CCN(CC3CC3)CC2)c1`, the affinity, expressed as Ki, was 9.9 nM.

Consider `N#Cc1ccccc1CN1CCC(COc2ccc(I)cc2)CC1`, for which the Ki worked out at 142 nM.

Molecule `N#Cc1ccc(OCC2CCN(CCCF)CC2)cc1` showed an inhibitory constant (Ki) of 144 nM.

Regarding `FCCCN1CCC(COc2ccc(Br)cc2)CC1`, the inhibition constant (Ki) worked out at 13.1 nM.

In turn, `FCCCN1CCC(COc2c(F)c(F)c(F)c(F)c2F)CC1` came in with an inhibition constant Ki of 5.3 nM.

As to `Ic1ccc(OCC2CCN(CC3CC3)CC2)cc1`, the affinity corresponds to a Ki of 11.7 nM.

As for `N#Cc1ccc(OCC2CCN(Cc3ccccc3I)CC2)cc1`, the Ki is 93.6 nM.

Molecule `FCCN1CCC(COc2ccc(I)cc2)CC1` displayed an inhibitory constant (Ki) of 102 nM.

As to `Fc1cccc(CN2CCC(COc3c(F)c(F)c(F)c(F)c3F)CC2)c1`, the inhibitory constant (Ki) came out at 25 nM.

The molecule `Fc1ccc(CN2CCC(COc3c(F)c(F)c(F)c(F)c3F)CC2)cc1` yielded a Ki of 4.3 nM.

On to `N#Cc1ccc(OCC2CCN(Cc3ccccc3Br)CC2)cc1`, for which the inhibitory constant (Ki) was 31.1 nM.

As for `N#Cc1ccc(OCC2CCN(CCF)CC2)cc1`, the inhibition constant Ki was determined as 361 nM.

Regarding `OCCN1CCC(COc2ccc(I)cc2)CC1`, affinity was put at a Ki of 139 nM.

In turn, `N#Cc1cccc(CN2CCC(COc3ccc(I)cc3)CC2)c1` yielded a Ki of 69.5 nM.

The target of another data set is Sigma 2 receptor. Briefly: Receptor binding affinity against Sigma-2 receptor from guinea pig membranes. On the set-up: species or system Cavia porcellus.
Conditions: not given
As for `O=[N+]([O-])c1ccc(OCC2CCN(Cc3ccc(F)cc3)CC2)cc1`, the affinity, expressed as Ki, was 3.9 nM.

For a further data set, the target named is D(2) dopamine receptor (Homo sapiens, UniProt P14416). Briefly: In vitro binding affinity for Dopamine receptor D2.
Chain of D(2) dopamine receptor (P14416 whole entry): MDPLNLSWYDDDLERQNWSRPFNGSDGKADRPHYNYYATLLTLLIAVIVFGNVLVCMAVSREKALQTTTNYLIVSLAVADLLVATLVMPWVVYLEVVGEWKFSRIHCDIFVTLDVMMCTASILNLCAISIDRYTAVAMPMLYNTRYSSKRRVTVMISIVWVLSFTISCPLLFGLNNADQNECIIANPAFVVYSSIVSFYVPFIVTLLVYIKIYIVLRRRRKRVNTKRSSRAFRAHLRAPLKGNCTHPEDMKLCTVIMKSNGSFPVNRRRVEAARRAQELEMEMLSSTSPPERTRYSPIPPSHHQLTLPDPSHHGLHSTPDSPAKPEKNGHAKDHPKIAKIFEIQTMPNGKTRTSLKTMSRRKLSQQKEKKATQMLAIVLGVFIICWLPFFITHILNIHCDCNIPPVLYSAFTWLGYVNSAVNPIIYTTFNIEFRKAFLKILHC
Conditions: not given
Regarding `N#Cc1ccc(OCC2CCN(Cc3ccc(F)cc3)CC2)cc1`, the Ki was above 10000 nM.

`O=[N+]([O-])c1ccc(OCC2CCN(Cc3ccc(F)cc3)CC2)cc1`: the Ki is above 10000 nM.

The molecule `Brc1ccc(OCC2CCN(CC3CC3)CC2)cc1` registered a Ki above 10000 nM.

The molecule `Brc1cccc(OCC2CCN(CC3CC3)CC2)c1` had an inhibition constant (Ki) above 10000 nM.

In the case of `N#Cc1ccc(OCC2CCN(CCCF)CC2)cc1`, the inhibitory constant (Ki) is above 10000 nM.

In turn, `FCCCN1CCC(COc2ccc(Br)cc2)CC1` yielded a Ki above 10000 nM.

In turn, `Ic1ccc(OCC2CCN(CC3CC3)CC2)cc1` had an inhibition constant Ki above 10000 nM.

Consider `FCCN1CCC(COc2ccc(I)cc2)CC1`, for which the Ki was above 10000 nM.

In turn, `N#Cc1ccc(OCC2CCN(CCF)CC2)cc1` showed a Ki above 10000 nM.

`OCCN1CCC(COc2ccc(I)cc2)CC1` returned an inhibition constant (Ki) above 10000 nM.

For the next data set, the species on record is Rattus norvegicus. In words: Blockade of uptake of the radiotracer in posterior cortex. Format: functional.
Conditions: not given
With `CC(C)=CCN1CC[C@]2(C)c3cc(O)ccc3C[C@H]1[C@H]2C` (single isomer, unassigned) [(+)-PENTAZOCINE], the Blockade is on record as 84%.

Target in a further data set: not listed separately
In words: In Vitro binding affinity for 5-hydroxytryptamine 2 receptor.
Conditions: not given
Take `Fc1c(F)c(F)c(CN2CCC(COc3c(F)c(F)c(F)c(F)c3F)CC2)c(F)c1F`: the inhibitory constant (Ki) is above 10000 nM.

For the molecule `N#Cc1ccc(OCC2CCN(Cc3ccc(F)cc3)CC2)cc1`, the Ki is above 10000 nM.

Consider `O=[N+]([O-])c1ccc(OCC2CCN(Cc3ccc(F)cc3)CC2)cc1`, for which the Ki was above 10000 nM.

Molecule `Brc1ccc(OCC2CCN(CC3CC3)CC2)cc1` gave a Ki above 10000 nM.

For `Brc1cccc(OCC2CCN(CC3CC3)CC2)c1`, the Ki was above 10000 nM.

As for `N#Cc1ccccc1CN1CCC(COc2ccc(I)cc2)CC1`, the Ki is above 1000 nM.

`N#Cc1ccc(OCC2CCN(CC3CC3)CC2)cc1` had a Ki above 200 nM.

`O=C(CC1CCN(CC2CC2)CC1)c1ccc(F)cc1`: the Ki amounted to 15 nM.

As to `N#Cc1ccc(OCC2CCN(CCCF)CC2)cc1`, the inhibition constant (Ki) was above 10000 nM.

As to `FCCCN1CCC(COc2ccc(Br)cc2)CC1`, the Ki is above 10000 nM.

As for `FCCCN1CCC(COc2c(F)c(F)c(F)c(F)c2F)CC1`, the inhibitory constant (Ki) was above 10000 nM.

`Ic1ccc(OCC2CCN(CC3CC3)CC2)cc1`: the Ki was above 10000 nM.

Regarding `N#Cc1ccc(OCC2CCN(Cc3ccccc3I)CC2)cc1`, the Ki is above 1000 nM.

In the case of `FCCN1CCC(COc2ccc(I)cc2)CC1`, the inhibitory constant (Ki) was above 10000 nM.

Turning to `Fc1cccc(CN2CCC(COc3c(F)c(F)c(F)c(F)c3F)CC2)c1`, the inhibition constant Ki was above 10000 nM.

Regarding `Fc1ccc(CN2CCC(COc3c(F)c(F)c(F)c(F)c3F)CC2)cc1`, the Ki is above 10000 nM.

`N#Cc1ccc(OCC2CCN(Cc3ccccc3Br)CC2)cc1` gave an inhibition constant (Ki) above 1000 nM.

Consider `O=[N+]([O-])c1ccc(OCC2CCN(CC3CC3)CC2)cc1`, for which the Ki is above 200 nM.

`N#Cc1ccc(OCC2CCN(CCF)CC2)cc1` showed an inhibitory constant (Ki) above 10000 nM.

On to `OCCN1CCC(COc2ccc(I)cc2)CC1`, for which the Ki was above 10000 nM.

In turn, `N#Cc1cccc(CN2CCC(COc3ccc(I)cc3)CC2)c1` gave a Ki above 1000 nM.

System in another data set: not listed separately
Briefly: Partition coefficient (logP). The data set is classed as physicochemical. The settings on record: octanol/water.
`N#Cc1ccc(OCC2CCN(Cc3ccc(F)cc3)CC2)cc1` yielded a logP of 3.22.

The molecule `O=[N+]([O-])c1ccc(OCC2CCN(Cc3ccc(F)cc3)CC2)cc1` registered a logP of 3.62.

`Brc1ccc(OCC2CCN(CC3CC3)CC2)cc1` came in with a logP of 6.22.

In the case of `Brc1cccc(OCC2CCN(CC3CC3)CC2)c1`, the lipophilicity (logP) turned out to be 6.36.

Molecule `N#Cc1ccccc1CN1CCC(COc2ccc(I)cc2)CC1` gave a lipophilicity (logP) of 4.32.

Turning to `N#Cc1ccc(OCC2CCN(CCCF)CC2)cc1`, the logP came to 2.93.

Molecule `FCCCN1CCC(COc2ccc(Br)cc2)CC1` displayed a lipophilicity (logP) of 5.88.

Regarding `FCCCN1CCC(COc2c(F)c(F)c(F)c(F)c2F)CC1`, the logP was 4.11.

As for `Ic1ccc(OCC2CCN(CC3CC3)CC2)cc1`, the log partition coefficient (logP) came to 6.67.

Molecule `N#Cc1ccc(OCC2CCN(Cc3ccccc3I)CC2)cc1` returned a logP of 4.3.

Turning to `FCCN1CCC(COc2ccc(I)cc2)CC1`, the logP amounted to 4.02.

For the molecule `Fc1cccc(CN2CCC(COc3c(F)c(F)c(F)c(F)c3F)CC2)c1`, the logP was determined as 4.72.

In turn, `N#Cc1ccc(OCC2CCN(Cc3ccccc3Br)CC2)cc1` gave a lipophilicity (logP) of 4.09.

Molecule `N#Cc1ccc(OCC2CCN(CCF)CC2)cc1` showed a logP of 2.42.

Regarding `OCCN1CCC(COc2ccc(I)cc2)CC1`, the lipophilicity (logP) was 3.8.

Molecule `N#Cc1cccc(CN2CCC(COc3ccc(I)cc3)CC2)c1` came in with a log partition coefficient (logP) of 4.19.

Source of the values: ChEMBL document CHEMBL1130041, “Halogenated 4-(phenoxymethyl)piperidines as potential radiolabeled probes for sigma-1 receptors: in vivo evaluation of [123I]-1-(iodopropen-2-yl)-4-[(4-cyanophenoxy)methyl]pip eri dine” (J Med Chem, 1997).
